Source: PMC7608815 (Science Advances, 2020)

Tests used:
SlMT3 = target: T1, SlMT3 (Solanum lycopersicum, UniProt D2Y3T9); experiment: yeast feeding assay, qToF-MS of methylation product; format: cell-based; conditions: 100 uM fed substrate plus endogenous yeast 3-HAA, 72 h, 30 C
T1 sequence (D2Y3T9 1-361): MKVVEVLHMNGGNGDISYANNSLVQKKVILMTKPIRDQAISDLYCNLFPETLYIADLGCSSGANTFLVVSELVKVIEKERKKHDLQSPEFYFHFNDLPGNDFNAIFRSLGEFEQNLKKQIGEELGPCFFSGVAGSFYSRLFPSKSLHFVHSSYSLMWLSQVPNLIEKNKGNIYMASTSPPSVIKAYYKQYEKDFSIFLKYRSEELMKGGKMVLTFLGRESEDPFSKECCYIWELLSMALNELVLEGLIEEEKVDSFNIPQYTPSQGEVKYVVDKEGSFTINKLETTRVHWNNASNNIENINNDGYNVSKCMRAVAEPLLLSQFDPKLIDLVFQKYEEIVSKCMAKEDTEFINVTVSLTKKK

AtCHS = target: T2, AtCHS (Arabidopsis thaliana, UniProt P13114); experiment: LC-MS/MS product detection, end point […] h; format: biochemical; conditions: 200 uM p-coumaroyl-CoA, 30 C
T2 sequence (P13114 2-395): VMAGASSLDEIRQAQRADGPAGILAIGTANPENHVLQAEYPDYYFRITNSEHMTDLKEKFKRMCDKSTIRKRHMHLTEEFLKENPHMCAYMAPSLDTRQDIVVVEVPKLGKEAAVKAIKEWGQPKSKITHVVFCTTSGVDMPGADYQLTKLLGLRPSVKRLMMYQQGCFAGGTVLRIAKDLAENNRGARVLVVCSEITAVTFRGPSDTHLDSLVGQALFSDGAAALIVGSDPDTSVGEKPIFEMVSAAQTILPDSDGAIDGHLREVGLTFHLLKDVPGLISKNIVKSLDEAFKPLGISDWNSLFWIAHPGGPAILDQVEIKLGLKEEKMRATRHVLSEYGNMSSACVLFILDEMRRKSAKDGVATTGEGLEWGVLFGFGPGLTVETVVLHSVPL

In the case of Nc1c(O)cccc1C(=O)O [3-HAA], the “yeast feeding assay, qToF-MS of methylation product” value (SlMT3) is reported as “SlMT3 exhibited detectable activity only toward 3-HAA”.
In the case of CC(C)(COP(=O)(O)OP(=O)(O)OC[C@H]1O[C@@H](n2cnc3c(N)ncnc32)[C@H](O)[C@@H]1OP(=O)(O)O)[C@@H](O)C(=O)NCCC(=O)NCCSC(=O)CC(=O)O [malonyl-CoA], the “LC-MS/MS product detection, end point 4 h” value (AtCHS; 200 uM malonyl-CoA, naringenin chalcone synthesis) is reported as “its activities on malonyl-CoA and 3-HAA methyl ester were analyzed under the same assay conditions”.
With COC(=O)c1cccc(O)c1N [compound 1, Methyl 2-amino-3-hydroxybenzoate] the “LC-MS/MS product detection, end point 4 h” value (AtCHS; 200 uM 3-HAA methyl ester, amide synthesis) was “highest production of amide with 3-HAA methyl ester”.
